ChEMBL document CHEMBL3045746, “Efficacy of Lawsonia inermis leaves extract and its phenolic compounds against olive knot and crown gall diseases” (2013)
In brackets after ≈: the same amount, converted by molar mass.

Tested on: Agrobacterium tumefaciens
Assay: Antibacterial activity against Agrobacterium tumefaciens str. B6 assessed as growth inhibition after 48 hr by INT staining
Assay type: functional
Conditions: str. B6, 48 h

MIC: 30 µg/mL (≈ 86.6 µM)
SMILES: CC(=O)c1c(O)cc(O)c(O)c1O[C@@H]1O[C@H](CO)[C@@H](O)[C@H](O)[C@H]1O [LALIOSIDE]
